Holding throughout (assay type): in vivo
Assay [1] relates to acetic acid-induced writhing. Briefly: acetic acid-induced writhing assay in the rat (RW). To be noted: for RW ED50 / ED50: oral administration; for ED50: Rattus norvegicus, po; for RW percent inhibition at dose 30: dose level 30. As for the experimental part:
(§1) Data in the developing adjuvant arthritis (AA) and plasma fibronectin (FN) assays are expressed as percent inhibition, i.e. inhibition of non-injected paw inflammation (NIP) and injected paw (RPV) and lowering of plasma fibronectin, the asterisks * and ** indicating statistical significance at the p<0.01 and p<0.05 levels, respectively. Compounds are considered active at p<0.05 level. Non-statistically significant results are recorded as "------ ". In the acetylcholine-induced abdominal constriction test, the test compounds were administered either as suspensions in gum tragacanth (GT) or as aqueous solutions prepared by addition of just sufficient dilute aqueous methanesulfonic acid (MS) or dilute aqueous lactic acid (LA) to dissolve the compound. The compounds are identified by the example number above where their preparations are described. All data in the anti-bradykinin, rat writhing and Randall-Selitto tests were obtained on oral administration.

Assay [2] deals with acetylcholine-induced abdominal constriction. Briefly: acetylcholine-induced abdominal constriction test (ACH). To be noted: mice; for ED50: Mus musculus.
Text: J. Pharmacol. Chemotherap. 32, 295 (1968); a modification of the anti-bradykinin test, which is also a primary analgesic screening procedure, described by Berkowitz et al., J. Pharmacol. Exptl. Therap. 177, 500-508 (1971), Blane et al., J. Pharm. Pharmacol. 19, 367-373 (1967), Botha et al., Eur. J. Pharmacol. 6, 312-321 (1969) and Deffenu et al., J. Pharm. Pharmacol. 18, 135 (1966); and the Randall-Selitto analgesic test described by Randall and Selitto, Arch. Int. Pharmacodyn., 111, 409-419 (1957).
as §1, with “Compounds are considered active at p<0.05 level.” left out

In assay [3] the test system is adjuvant induced arthritis. Put plainly: developing adjuvant arthritis (AA) assay. To be noted: arthritic rats; printed * = p<0.01, ** = p<0.05. As for the experimental part:
Antirheumatic and anti-inflammatory activities of the compounds of the invention were determined using the developing adjuvant arthritis assay in rats and the plasma fibronectin assay in arthritic rats. The developing adjuvant arthritis assay was used in conjunction with the plasma fibronectin assay as a primary screening method in the evaluation of compounds for potential use as disease modifying anti-rheumatic drugs. The procedure used to induce arthritis in rats is a modification of the methods published by Pearson, J. Chron. Dis. 16, 863-874 (1973) and by Glenn et al., Amer. J. Vet. Res. 1180-1193 (1965). Adjuvant induced arthritis bears many of the traits of rheumatoid arthritis. It is a chronic, progressive, deforming arthritis of the peripheral joints, with a primary mononuclear cell response consisting of bone and joint space invasion by pannus. In order to detect disease modifying anti-rheumatic drug activity, drug treatment is started before the disease has become irrevocably established. Since such drugs are not designed to be administered prophylactically, drug treatment of adjuvant arthritis is initiated at a time when the disease is developing but is not yet irreversible. Animals develop significant systemic arthritic disease which can be measured by swelling of the non-injected rear paw (NIP) 15 to 20 days following an initial injection on day 1 of complete Freund's adjuvant into the right hindfoot paw.
as §1

Where [4] appears, read: Table 9, Examples, no route marked in the cell, read-out: ACH ED50.
Where [5] appears, read: Table 9, Examples, no route marked in the cell.
The mark [6] stands for this setting: iv, Table 9, iv, read-out: ACH ED50 (iv).

Counter-ions that a name gives are not always drawn. Like-named read-outs stand apart in the source and are kept apart here.

As for `COc1ccc(C(=O)c2c(C)n(CC3CCCN3C)c3ccccc23)cc1` (single isomer, unassigned) [2E(1), (1)1-(1-methyl-2-pyrrolidinylmethyl)-2-methyl-3-(4-methoxybenzoyl)-1H-indle hydrochloride], the “RW ED50” value in assay [1] (hydrochloride) is listed as 13 mg/kg. Also, the “ACH ED50” value in assay [2] (Table 9, Examples, no route marked in the cell, hydrochloride) came out at 35 mg/kg.
Usually ED50 stands for the dose at which the effect has come halfway, by size or by number of responders. For `COc1ccc(C(=O)c2c(C)n(CC3CCCN3C)c3ccccc23)cc1` (single isomer, unassigned) [2E(d), (d)1-(1-methyl-2-pyrrolidinylmethyl)-2-methyl-3-(4-methoxy-benzoyl)-1H-inole hydorochloride], the “RW ED50” value in assay [1] stood at 30 mg/kg. Moreover, the ED50 in assay [2] (setting [4]) amounted to 47 mg/kg. In addition, in assay [2] (setting [5]), the “ACH ED50” value was 36 mg/kg.
`COc1ccc(C(=O)c2c(C)n(C3CCCN(C)C3)c3ccccc23)cc1` (centres unmarked) [2AG(a)]: in assay [1], the 50% effect level (ED50) was put at a dose of 9 mg/kg. Besides, the “ACH ED50” value in assay [2] (Table 9, Examples, no route marked in the cell, listed as 2AG(d)) is 22 mg/kg.
Take `COc1ccc(C(=O)c2c(C)n(CC3CN(C)CCO3)c3ccccc23)cc1` (centres unmarked) [Example 1A, 1-[(4-methyl-2-morpholinyl)methyl]-2-methyl-3-(4-methoxybenzoyl)-1H-indolehydrochloride]: the ED50 in assay [1] stood at 3 mg/kg; in assay [2] (setting [4]), 9 mg/kg.
Take `Cc1c(C(=O)c2ccccc2)c2ccccc2n1CC1CN(C)CCO1` (centres unmarked) [Example 1C]: the values for the median effective dose (ED50) in assay [1] and in assay [2] (setting [4]) were 10 mg/kg and 21 mg/kg, respectively.
On to `Cc1c(C(=O)c2ccccc2F)c2ccccc2n1CC1CN(C)CCO1` (centres unmarked) [Example 1F], for which the results for the ED50 in assay [1] and in assay [2] (setting [4]) were 26 mg/kg and 22 mg/kg, respectively.
For `COc1ccc(C(=O)c2cn(CC3CCCN(C)C3)c3ccccc23)cc1` (centres unmarked) [Example 1I], in assay [1], the median effective dose (ED50) came out at 32 mg/kg. In addition, in assay [2] (setting [6]), the ED50 was determined as 5 mg/kg. Besides, the “ACH ED50 (MS)” value in assay [2] (Table 9, aqueous solution with dilute methanesulfonic acid (MS)) is 38 mg/kg. Besides, in assay [3], the “NIP: percent inhibition of non-injected paw inflammation” value was determined as 61% and the “RPV: percent inhibition of injected paw” value is reported as 19%.
Regarding `Cc1c(C(=O)c2ccccc2F)c2ccccc2n1CC1CCCN(C)C1` (centres unmarked) [Example 1J], the ED50 is 45 mg/kg in assay [1] and 32 mg/kg in assay [2] (setting [4]).
Turning to `Cc1c(C(=O)c2ccccc2)c2ccccc2n1CC1CCCN(C)C1` (centres unmarked) [Example 1K], the figures for the 50% effective dose (ED50) in assay [1] and in assay [2] (setting [4]) were 40 mg/kg and 33 mg/kg, respectively. In assay [3], the “NIP: percent inhibition of non-injected paw inflammation” value was found to be 76%. Moreover, the “RPV: percent inhibition of injected paw” value in assay [3] is 50%.
As for `CCN1CCCC(n2c(C)c(C(=O)c3ccc(OC)cc3)c3ccccc32)C1` (centres unmarked) [Example 2AE], the “RW percent inhibition at dose 30” value in assay [1] (oral) is 15%. Moreover, in assay [2] (setting [4]), the ED50 turned out to be 26 mg/kg.
Turning to `COc1ccc(C(=O)c2c(C)n(CC3=CCCN(C)C3)c3ccccc23)cc1` [Example 2AF], it took a dose of 15 mg/kg to reach the 50% effect level in assay [1] (ED50). For the same compound, the median effective dose (ED50) in assay [2] (setting [4]) was determined as 11 mg/kg. Also, in assay [3], the “NIP: percent inhibition of non-injected paw inflammation” value is reported as 93% and the “RPV: percent inhibition of injected paw” value is 78%.
As to `COc1ccc(C(=O)c2c(C)n(CC3CCN(C)C3)c3ccccc23)cc1` (centres unmarked) [Example 2AI], the ED50 is 4 mg/kg in assay [1] and 11 mg/kg in assay [2] (setting [4]). Besides, the “ACH ED50” value in assay [2] (setting [5]) came out at 13 mg/kg.
With `Cc1c(C(=O)c2ccccc2F)c2ccccc2n1CC1CCCN1C` (centres unmarked) [Example 2AJ], the ED50 in assay [1] came to 6 mg/kg; in assay [2] (setting [4]), 72 mg/kg. Moreover, in assay [3], the “NIP: percent inhibition of non-injected paw inflammation” value was found to be 31%.
In assay [1], `COc1ccc(C(=O)c2c(C)n(CCC3CCCCN3C)c3ccccc23)cc1` (centres unmarked) [Example 2G] came in with an ED50 of 3 mg/kg. In addition, the ED50 in assay [2] (setting [4]) is 26 mg/kg. In assay [3], the “NIP: percent inhibition of non-injected paw inflammation” value is on record as 93% and the “RPV: percent inhibition of injected paw” value came to 73%.
With `COc1ccc(C(=O)c2c(C)n(CC3CCCN(C)C3)c3ccc(F)cc23)cc1` (centres unmarked) [Example 2I], the values for the ED50 in assay [1] and in assay [2] (setting [4]) were 5 mg/kg and 40 mg/kg, respectively. The “NIP: percent inhibition of non-injected paw inflammation” value in assay [3] came out at 70%. Moreover, in assay [3], the “RPV: percent inhibition of injected paw” value is given as 51%.
Turning to `CCc1c(C(=O)c2ccc(OC)cc2)c2ccccc2n1CC1CCCN(C)C1` (centres unmarked) [Example 2K], the 50% effective dose (ED50) in assay [1] was determined as 23 mg/kg; in assay [2] (setting [4]), 16 mg/kg; in assay [2] (setting [6]), 11 mg/kg; in assay [2] (sc, Table 9, sc, read-out: ACH ED50 (sc)), 10 mg/kg. Also, the “NIP: percent inhibition of non-injected paw inflammation” value in assay [3] was found to be 68%. Moreover, the “RPV: percent inhibition of injected paw” value in assay [3] came to 54%.
In the case of `CCN1CCCC(Cn2c(C)c(C(=O)c3ccc(OC)cc3)c3ccccc32)C1` (centres unmarked) [Example 2L], the ED50 in assay [1] is 2 mg/kg; in assay [2] (setting [4]) it was 11 mg/kg.
`CSc1ccc(C(=O)c2c(C)n(CC3CCCN(C)C3)c3ccccc23)cc1` (centres unmarked) [Example 2O] had an ED50 in assay [1] of 5 mg/kg. Moreover, the ED50 in assay [2] (setting [4]) worked out at 8 mg/kg. Besides, in assay [3], the “NIP: percent inhibition of non-injected paw inflammation” value stood at 65% and the “RPV: percent inhibition of injected paw” value was determined as 44%.
Turning to `COc1ccc(C(=O)c2c(C)n(CC3CN(C)CCN3C)c3ccccc23)cc1` (centres unmarked) [Example 2V], the ED50 in assay [1] was determined as 15 mg/kg; in assay [2] (setting [4]), 20 mg/kg.
As for `COc1ccc(C(=O)c2c(C)n(C3CCCCN(C)C3)c3ccccc23)cc1` (centres unmarked) [Example 2X], the “RW percent inhibition at dose 30” value in assay [1] (oral) was found to be 54%. In assay [1] (oral, dose level 100), the “RW percent inhibition at dose 100” value was 82%. The ED50 in assay [2] (setting [4]) was found to be 29 mg/kg. Moreover, the “NIP: percent inhibition of non-injected paw inflammation” value in assay [3] stood at 43%.
With `COc1ccc(C(=O)c2c(C)n(CC3CSCCN3C)c3ccccc23)cc1` (centres unmarked) [Example 3A, 1-[(4-methyl-3-thiomorpholinyl)methyl]-2-methyl-3-(4-methoxybenzoyl)-1H-indole], the results for the ED50 in assay [1] and in assay [2] (setting [4]) were 13 mg/kg and 33 mg/kg, respectively.
`COc1ccc(C(=O)c2c(C)n(CC3CCCNC3)c3ccccc23)cc1` (centres unmarked) [Example 4B] registered an ED50 in assay [1] of 10 mg/kg. For the same compound, the ED50 in assay [2] (setting [4]) was 15 mg/kg. In addition, in assay [3], the “NIP: percent inhibition of non-injected paw inflammation” value is 91% and the “RPV: percent inhibition of injected paw” value stood at 79%.
For the compound `COc1ccc(C(=O)c2c(C)n(CC3CNCCN3)c3ccccc23)cc1` (centres unmarked) [Example 4C], the ED50 in assay [1] came out at 20 mg/kg; in assay [2] (setting [4]) it was 22 mg/kg.
`CC(C1CCCN(C)C1)n1cc(C(=O)c2ccccc2F)c2ccccc21` (centres unmarked) [Example 4G]: the “RW ED50” value in assay [1] was 7 mg/kg. Besides, the “ACH ED50” value in assay [2] (setting [5]) is 19 mg/kg.
In assay [1], `CC(C1CCCNC1)n1cc(C(=O)c2ccccc2F)c2ccccc21` (centres unmarked) [Example 4H] gave an ED50 of 4 mg/kg. Further, the “ACH ED50” value in assay [2] (setting [5]) stood at 25 mg/kg.
`COc1ccc(C(=O)c2c(C)n(CC3(O)CCN(C)CC3)c3ccccc23)cc1` [Example 5, 2-methyl-3-(4-methoxybenzoyl)-1-[(1-methyl-4-hydroxy-4-piperidinyl)methyl]-1H-indole]: the figures for the ED50 in assay [1] and in assay [2] (setting [4]) were 9.1 mg/kg and 23 mg/kg, respectively.
Consider `COc1ccc(C(=O)c2c(C)n(CC3CCCN3)c3ccccc23)cc1.Cl` (centres unmarked) [Example 8A, 2-methyl-3-(4-methoxybenzoyl)-1-[(2-pyrrolidinyl)methyl]-1H-indole hydrochloride], for which the ED50 is 25 mg/kg in assay [1] and 41 mg/kg in assay [2] (setting [4]).
As to `Cc1c(C(=O)c2ccc(N)cc2)c2ccccc2n1CC1CCCN(C)C1` (centres unmarked) [Example 9, 2-methyl-3-(4-aminobenzoyl)-1-[(1-methyl-3-piperidinyl)methyl]-1H-indole hydrochloride hemihydrate], the ED50 amounted to 9 mg/kg in assay [1] and 12 mg/kg in assay [2] (setting [4]).

Values taken from patent publication US5817651A, “3-arylcarbonyl-1-(C-attached-N-heteryl)-1H-indoles” (Sanofi, priority 1997, dated 1998).
